The test system of experiment [1] is IgA antibodies. The experiment in a line: Microarray, IgA binding in nasosorption samples, controlled human infection. The conditions noted are these: 20 cercariae, baseline and 8 weeks post infection; FIG. 10. The text has this:
(§1) Immunopurified native schistosome CAA, synthetic di-, tetra-, hexa-, and octasaccharides with appropriate positive and negative controls were printed in triplicates onto epoxilane coated glass slides (Nexterion Slide E, Schott 1066643) with a MicroGrid robot (BioRobotics). See general methodology in (de Boer, Hokke et al. 2007).
(§2) Microarrays with fitted silicone gaskets (64 samples/slide) were reconstituted in 1×PBS and blocked for minimum one hour (PBS, 2% bovine serum albumin (Sigma-Aldrich A3059) with 50 mM ethanolamine (>99.5%, Sigma-Aldrich 411000)) on shaker. Each array washed in PBS Tween 0.05%, PBS and 30 ul serum sample 1:100 in buffer/array added for 1 hour incubation at room temperature on shaker. Arrays were then washed (as above) and 1:1000 detection antibodies added (goat anti-human IgG-Cy-3, Sigma-Aldrich C2571; goat anti-human IgM-AF647, Invitrogen, A21249) for 30 min room temperature incubation on shaker. Finally, slides were washed as above with an additional wash in milli-Q before they were spun dry and scanned (Agilent Scan Control™ 2006). […]
(§3) Microarray scan images were obtained through Agilent Feature Extraction 10.7.3.1 and imported into GenePixPro vs7. Spot morphology quality was inspected and median fluorescence intensity (MFI) values obtained per nanodot with an average of a triplicate per target used for analyses. […]

In experiment [2] the test system is IgA antibodies. The experiment in a line: Microarray, IgA binding in serum samples, controlled human infection. The conditions noted are these: 20 cercariae, n=7, eight weeks post infection; FIG. 9.
Text: as §1
Microarrays with fitted silicone gaskets (64 samples/slide) were reconstituted in 1×PBS and blocked for minimum one hour (PBS, 2% bovine serum albumin (Sigma-Aldrich A3059) with 50 mM ethanolamine (>99.5%, Sigma-Aldrich 411000)) on shaker. Each array washed in PBS Tween 0.05%, PBS and 30 ul serum sample 1:100 in buffer/array added for 1 hour incubation at room temperature on shaker. […] Finally, slides were washed as above with an additional wash in milli-Q before they were spun dry and scanned (Agilent Scan Control™ 2006). […] Samples were eluted in PBS 1% BSA 0.05% Triton-X and incubated as 1:2 dilution. […]
(§4) Microarray scan images were obtained through Agilent Feature Extraction 10.7.3.1 and imported into GenePixPro vs7. Spot morphology quality was inspected and median fluorescence intensity (MFI) values obtained per nanodot with an average of a triplicate per target used for analyses. Further data processing was done in Microsoft Excel and graphs were generated using GraphPad Prism 9.3.1.

For a further experiment, the system named is IgM antibodies. The experiment in a line: Microarray, serum IgM binding to printed CAA structures, controlled human infection samples. The conditions noted are these: individual level, infection with 10, 20, 30 cercariae; FIG. 3-5.
Text: as §1
Microarrays with fitted silicone gaskets (64 samples/slide) were reconstituted in 1×PBS and blocked for minimum one hour (PBS, 2% bovine serum albumin (Sigma-Aldrich A3059) with 50 mM ethanolamine (>99.5%, Sigma-Aldrich 411000)) on shaker. Each array washed in PBS Tween 0.05%, PBS and 30 ul serum sample 1:100 in buffer/array added for 1 hour incubation at room temperature on shaker. Arrays were then washed (as above) and 1:1000 detection antibodies added (goat anti-human IgG-Cy-3, Sigma-Aldrich C2571; goat anti-human IgM-AF647, Invitrogen, A21249) for 30 min room temperature incubation on shaker. Finally, slides were washed as above with an additional wash in milli-Q before they were spun dry and scanned (Agilent Scan Control™ 2006). For nasosorption samples, they were incubated as above with the following changes. Samples were eluted in PBS 1% BSA 0.05% Triton-X and incubated as 1:2 dilution. For detection goat anti-human IgA-Dylight 650 (Novus NBP 1-75754) was used in 500×dilution.
as §4

The next experiment deals with IgG antibodies. The experiment in a line: Microarray, serum IgG binding to printed CAA structures, controlled human infection samples. The conditions noted are these: three individual sera, FIG. 14.
Text: as §1, §2, §3

Data on four molecules can be found in patent US20260043803A1, “MEANS FOR DETECTING S[…]” (ACADEMISCH ZIEKENHUIS LEIDEN (H.O.D.N. LUMC), priority 2022, published 2026).

Turning to `CC(=O)NC1C(O[C@@H]2OC(C(=O)O)[C@@H](O)C(O)C2O)[C@@H](O)C(CO)O[C@H]1OCC1O[C@@H](OCC2O[C@@H](OCC3O[C@@H](OCCCCCCN)C(NC(C)=O)C(O[C@@H]4OC(C(=O)O)[C@@H](O)C(O)C4O)[C@H]3O)C(NC(C)=O)C(O[C@@H]3OC(C(=O)O)[C@@H](O)C(O)C3O)[C@H]2O)C(NC(C)=O)C(O[C@@H]2OC(C(=O)O)[C@@H](O)C(O)C2O)[C@H]1O` (some centres unmarked) [octasaccharide], the “detection of specific IgA in nasosorption samples” value in the experiment with IgA antibodies [1] is recorded as “detectable”. In the experiment with IgA antibodies [2], the “detection of specific IgA in serum” value is recorded as “detection”. In addition, the “IgM background at baseline (specificity)” value with IgM antibodies is recorded as “improves further”.
As to `CC(=O)NC1C(O[C@@H]2OC(C(=O)O)[C@@H](O)C(O)C2O)[C@@H](O)C(CO)O[C@H]1OCCCCCCN` (stereo partly drawn) [disaccharide, 6-aminohexyl 2-acetamido-2-deoxy-3-O-(β-D-glucoronic acid)-β-D-galactopyranose], in the experiment with IgM antibodies, the “IgM response pattern compared with native CAA” value is recorded as “not representative of CAA”.
“6-aminohexyl 2-acetamido-2-deoxy-3-O-(3-D-glucoronic acid)-6-O-(2-acetamido-2-deoxy-3-O-(3-D-glucuronic acid)-6-O-(2-acetamido-2-deoxy-3-O-(β-D-glucuronic acid)-6-O-(2-acetamido-2-deoxy-3-O-(3-D-glucuronic acid)-6-O-(2-acetamido-2-deoxy-3-O-(3-D-glucuronic acid)-β-D-galactopyranose)-β-D-galactopyranose)-3-D-galactopyranose-β-D-galactopyranose [CAA decasaccharide]”: in the experiment on IgG antibodies (20 male S. mansoni cercariae), the “IgG response at week 8 after infection” value is listed as “equal or stronger than to shorter CAA fragments”. In the experiment on IgG antibodies (prior to infection), the IgG pre-infection response result is reported as “negligible”.
Turning to `CC(=O)NC1C(O[C@@H]2OC(C(=O)O)[C@@H](O)C(O)C2O)[C@@H](O)C(CO)O[C@H]1OCC1O[C@@H](OCCCCCCN)C(NC(C)=O)C(O[C@@H]2OC(C(=O)O)[C@@H](O)C(O)C2O)[C@H]1O` (stereo partly drawn) [tetrasaccharide, 6-aminohexyl 2-acetamido-2-deoxy-3-O-(β-D-glucoronic acid)-6-O-(2-acetamido-2-deoxy-3-O-(β-D-glucuronic acid)-β-D-galactopyranose)-β-D-galactopyranose], in the experiment with IgM antibodies, the “IgM background at baseline (specificity)” value is listed as “too high” and the “IgM response pattern compared with native CAA” value is given as “a dynamic range resembling native material is starting to appear”.
